Among the data in ChEMBL document CHEMBL5729683, “Diazaindole derivative and use thereof as CHK1 inhibitor” (2023) are IC50 values, retold here.

Each structure is given as a SMILES string.

For test [1], the target named is Serine/threonine-protein kinase Chk2 (Homo sapiens, UniProt O96017). As to the kind of experiment: Activity Test of Compounds in the CHK1 Coupled Reaction System: The compounds of the present disclosure used in the experiments were self-prepared, and their chemical names and structural formulas were shown in the preparation embodiments of each compound. […] The test was carried out on the KinaseProfiler™ protein kinase activity detection platform of Eurofins, and the experimental results were provided by the company. […] A mixture solution of Mg2′ and ATP (adenosine triphosphate) was added to initiate the reaction and the reaction solution was incubated at room temperature for 40 min. 0.5% […] was added to terminate the reaction. […] The value was read with scintillation counting method after drying.
Chain of Serine/threonine-protein kinase Chk2 (O96017 whole entry): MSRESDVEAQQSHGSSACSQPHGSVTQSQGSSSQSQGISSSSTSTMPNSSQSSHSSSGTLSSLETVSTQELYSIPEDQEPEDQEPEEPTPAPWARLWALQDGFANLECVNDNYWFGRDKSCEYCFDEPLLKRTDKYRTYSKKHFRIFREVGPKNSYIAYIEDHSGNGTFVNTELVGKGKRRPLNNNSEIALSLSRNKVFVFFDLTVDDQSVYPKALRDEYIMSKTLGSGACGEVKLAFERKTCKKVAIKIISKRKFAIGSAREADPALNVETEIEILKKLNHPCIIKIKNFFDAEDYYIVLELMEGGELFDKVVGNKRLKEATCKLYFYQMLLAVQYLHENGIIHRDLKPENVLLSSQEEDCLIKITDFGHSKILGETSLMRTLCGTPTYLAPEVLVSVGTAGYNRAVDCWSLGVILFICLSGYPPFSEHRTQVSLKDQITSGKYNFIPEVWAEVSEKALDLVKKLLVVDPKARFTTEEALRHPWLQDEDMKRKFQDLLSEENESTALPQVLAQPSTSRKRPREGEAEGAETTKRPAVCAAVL

In test [2] the target is T1, Serine/threonine-protein kinase Chk1 (Homo sapiens, UniProt O14757).
T1 sequence (O14757 whole entry): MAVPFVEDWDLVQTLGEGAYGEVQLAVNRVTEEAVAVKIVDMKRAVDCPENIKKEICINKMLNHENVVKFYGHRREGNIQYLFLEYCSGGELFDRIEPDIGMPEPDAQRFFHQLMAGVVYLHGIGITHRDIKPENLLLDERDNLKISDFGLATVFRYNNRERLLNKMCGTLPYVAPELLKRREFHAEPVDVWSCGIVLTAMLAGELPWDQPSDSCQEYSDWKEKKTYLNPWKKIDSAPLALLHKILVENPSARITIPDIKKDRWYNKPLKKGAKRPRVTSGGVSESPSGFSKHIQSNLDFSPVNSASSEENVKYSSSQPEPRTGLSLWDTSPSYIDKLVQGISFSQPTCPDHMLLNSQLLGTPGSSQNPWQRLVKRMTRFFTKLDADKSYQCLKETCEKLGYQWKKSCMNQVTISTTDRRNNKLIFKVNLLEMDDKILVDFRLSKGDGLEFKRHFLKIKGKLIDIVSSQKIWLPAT
As to the kind of experiment: Activity Test of Compounds in the CHK1 Coupled Reaction System: The compounds of the present disclosure used in the experiments were self-prepared, and their chemical names and structural formulas were shown in the preparation embodiments of each compound. The determination mixture containing embodiment compounds of the present disclosure and Chk1 and Chk2 kinases were incubated in a microtiter plate, and CHK1 inhibitor activity of compounds were tested by monitoring the phosphorylation of Chk1 and Chk2 kinases on a synthetic peptide substrate with a specific amino acid sequence ([…], SEQ ID NO: 1). The test was carried out on the KinaseProfiler™ protein kinase activity detection platform of Eurofins, and the experimental results were provided by the company. The procedure was as follows: Chk1 and Chk2 kinases were diluted with 20 mM MOPS (morpholinpropane sulfonic acid), 1 mM EDTA (ethylenediaminetetraacetic acid), 0.04% Brij-35, 5% glycerol, 0.1% 2-mercaptoethanol, 1 mg/mL BSA (bovine serum albumin) and added to the reaction system, and the reaction system contained the embodiment compounds, 8 mM MOPS pH 7.0, 0.2 mM EDTA, 200 sM polypeptide substrate ([…], SEQ ID NO: 1), 10 mM magnesium acetate and a certain concentration of [γ-33P]-ATP (the strength was about 500 cpm/pmol). A mixture solution of Mg2′ and ATP (adenosine triphosphate) was added to initiate the reaction and the reaction solution was incubated at room temperature for 40 min. 0.5% Phosphate buffer was added to terminate the reaction. 10 μL of the reaction solution was filtered four times on a continuous filter P30, washed three times with 0.425 phosphate buffer, and once with methanol, each wash for 4 min. The value was read with scintillation counting method after drying.

With `COc1nc(C)ccc1-c1cc(Nc2cnc3c(F)cn(C4CCN(C)CC4)c3n2)n[nH]1`, in test [1], the IC50 (usually the midpoint of a concentration-inhibition curve) stood at 166 nM.

Turning to `COc1nc(C)ccc1-c1cc(Nc2cnc3c(F)cn(C4CCNCC4)c3n2)n[nH]1`, the IC50 in test [1] was 28 nM.

`COc1cccc(F)c1-c1cc(Nc2cnc3c(F)cn(C4CCNCC4)c3n2)n[nH]1`: the results for the IC50 in test [1] and in test [2] were 2 nM and < 1 nM, respectively.

For `COc1nc(C)ccc1-c1cc(Nc2cnc3ccn(C4CCNCC4)c3n2)n[nH]1`, the half-inhibitory concentration (IC50) in test [1] stood at 79 nM.

Consider `COc1nc(C)ccc1-c1cc(Nc2cnc3ccn(C4CCN(C)CC4)c3n2)n[nH]1`, for which the half-inhibitory concentration (IC50) in test [1] is 257 nM.

As for `COc1cccc(F)c1-c1cc(Nc2cnc3ccn(C4CCNCC4)c3n2)n[nH]1`, the results for the IC50 in test [1] and in test [2] were 13 nM and “in the range around 1 nM”, respectively.

With `COc1nc(C)ccc1-c1cc(Nc2cnc3ccn(CC4CCNCC4)c3n2)n[nH]1`, the IC50 in test [1] was determined as 1970 nM; in test [2], 5 nM.

Turning to `COc1cccc(F)c1-c1[nH]nc(Nc2cnc3ccn(C4CCNCC4)c3n2)c1F`, the results for the IC50 in test [1] and in test [2] were 24 nM and “in the range around 2 nM”, respectively.
